Article PMC5958115, “A novel small molecule chaperone of rod opsin and its potential therapy for retinal degeneration” (Nature Communications, 2018)

Columns and labels:
[1] = test system: Abca4−/−Rdh8−/− mice; assay: Bright light-induced retinal degeneration (SD-OCT, HE staining); type: in vivo, mouse; details: 50 or 200 mg kg^−1 bw i.p. 30 min before 10,000 lux for 30 min; day 7
Method: Abca4^−/−Rdh8^−/− [42] mice with a 129 Sv/Ev or C57BL/6 mixed background were used for light-induced retinal degeneration assays. […] Male and female C57BL/6 mice (Jackson Laboratory, Bar Harbor, ME) at 6 weeks of age were used to test the effects of YC-001 treatment on the retinoid cycle and bw as well as to determine parenterally administrated YC-001 entering the eyes. YC-001 was dissolved in DMSO at 80–160 mg mL^−1, and the solution was provided to mice by i.p. injection. All mice were housed and maintained in a 12 h light (≤10 lux)/12 h dark cycle in the Animal Resource Center at the School of Medicine, CWRU. […]
Retinal degeneration was initiated by exposing Abca4^−/−Rdh8^−/− mice for 30 min to white light with an intensity of 10,000 lux (150-W spiral lamp, Hampton Bay, Home Depot, Atlanta, GA USA)[43]. […] Retinal structures were analyzed by SD-OCT seven days after bright light exposure. […]
To assess the effect of YC-001 treatment on Abca4^−/−Rdh8^−/− mice following bright light-induced retinal degeneration, we performed ultrahigh-resolution SD-OCT (Bioptigen, Morrisville, NC) for in vivo imaging of mouse retinas. […] To measure changes to photoreceptors in the retinas challenged with bright light and assess the effect of YC-001 on retinal protection, the thickness of the ONL was measured along the scanned SD-OCT image at 8 points from the nasal to temporal end of the retina. […]

[2] = target: T1, human clarin-1 N48K (Homo sapiens, UniProt P58418, N48K); assay: Image-based analysis of Clarin-1-N48K-Venus in HEK 293 cells; type: cell-based; details: 24 h
T1 construct: expressed in transfected cells
Method: HEK 293 stable cells co-expressing human clarin-1 N48K-Venus fluorescent protein and DsRed-Express-DR fusion protein were obtained from Dr. Yoshikazu Imanishi at Case Western Reserve University (CWRU). Cells were cultured in DMEM medium with 10% FBS following guidelines from ATCC. To test effects of YC-001 treatments on clarin-1 N48K-Venus amounts in these cells, an image-based assay was performed. Briefly, cells were seeded at 20,000 cells per well in 40 µL per well DMEM medium with 10% FBS in a 384-well PerkinElmer View plate coated with poly-D-lysine and cultured at 37 °C with 5% CO2 for 24 h. Cells then were treated with 10 µL per well DMEM medium with 10% FBS containing 5× the final concentration of tested compounds. […] Each compound was tested with 10 doses in a twofold dilution series, featuring three biological replicates. The 384-well plate was put back for incubation at 37 °C with 5% CO2. After 24 h of exposure to test compounds, the plate was removed, and the medium was aspirated and replaced by 20 µL per well of 4% paraformaldehyde for fixation at RT for 20 min. […] Images were analyzed by the Columbus storage and analysis system (PerkinElmer). Hoechst33342 fluorescence images were used to define nuclei and count cells. […] YFP and DsRed fluorescence intensities per cell were measured in each well.

[3] = Quantification of YC-001 in mouse eye by HPLC; type: in vivo, C57BL/6 mouse
Method: To measure the amount of YC-001 in the eye following systemic delivery, YC-001 was administered to C57BL/6 mice by i.p. injection at a dose of 200 mg kg^−1 bw. Mice then were euthanized at 30 min, 3 h and 24 h after these injections, and their eyes were removed for analysis. Eyes from two mice under the same treatment were homogenized on ice in 1 mL of PBS:methanol (1:1 ratio). Four-mL of hexanes were then added to the homogenized sample, and the mixture was vortexed for 15 s. The mixture was centrifuged at 3,220×g for 15 min at 4 °C to separate the hexanes from the aqueous layer. From the top hexane layer, 3.5 mL was transferred to a glass vial. This sample was then dried in a Savant speed vacuum concentrator (Thermofisher, Waltham, Massachusetts, USA) and dissolved in 300 µL methanol. One hundred-µL of dissolved sample were injected into an HPLC system connected to an Agilent Sil column (5 μm, 4.6 × 250 mm; Agilent Technologies, Santa Clara, CA) for separation with 10% ethyl acetate in hexanes at a flow rate 1.4 mL min^−1. A chromatogram of absorption at 340 nm was then obtained. A YC-001 standard was subjected to the same procedures as the ocular samples and used to establish a retention time at 13.2 min. By comparing ocular samples to its standard curve of YC-001, the amount of YC-001 was then quantified in pmol per eye at different time points after its systemic administration. The identity of YC-001 in the peak fraction with a retention time of […] was confirmed by LC–MS using the same chromatography method as applied for HPLC.

T1 sequence (P58418 whole entry N48K): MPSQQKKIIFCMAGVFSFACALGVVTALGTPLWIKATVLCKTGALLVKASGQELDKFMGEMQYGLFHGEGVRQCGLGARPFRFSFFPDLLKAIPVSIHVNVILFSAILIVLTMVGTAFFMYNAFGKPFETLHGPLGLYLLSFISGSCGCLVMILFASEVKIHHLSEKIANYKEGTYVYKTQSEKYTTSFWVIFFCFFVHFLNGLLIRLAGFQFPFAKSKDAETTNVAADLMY

## O=C1OCC(c2ccc(Cl)s2)=C1c1cccs1 [YC-001]
[1]
  protection of the ONL from light-induced damage: dose-dependent protection of the ONL
[2]
  effect on amount or stability of the clarin-1 N48K mutant: did not affect the amount or stability
[3]; 0.5 h after i.p. 200 mg kg^−1 bw
  amount of YC-001 in eye: About 70 pmol per eye
[3]; 3 h after i.p. 200 mg kg^−1 bw
  amount of YC-001 in eye: 280 pmol per eye
[3]; 24 h after i.p. 200 mg kg^−1 bw
  amount of YC-001 in eye: undetectable
